System: glutamine synthetase (GS)
Experiment: glutamine synthetase inhibition assay (glutamine synthetase activity assay kit, Abcam)
Format: biochemical
Details: for Inhibition (%) of glutamine synthetase, Assay 1: Table S4, assay 1 of 3; for Inhibition (%) of glutamine synthetase, Assay 1 / Inhibition (%) of glutamine synthetase, Assay 2 / Inhibition (%) of glutamine synthetase, Assay 3: 1 mM inhibitor final concn, enzyme pre-incubated with inhibitor 37 °C 10 min, colorimetric ADP detection, A570 (average of 3 readings), background subtracted, vs enzyme control; for Inhibition (%) of glutamine synthetase, Assay 1 / Inhibition (%) of glutamine synthetase, Assay 2 / Inhibition (%) of glutamine synthetase, Assay 3 / Average inhibition (%) of glutamine synthetase: reaction 37 °C 60 min; for Inhibition (%) of glutamine synthetase, Assay 2: Table S5, assay 2 of 3; for Inhibition (%) of glutamine synthetase, Assay 3: Table S6, assay 3 of 3; for Average inhibition (%) of glutamine synthetase: Table S7, average of assay 1, 2 and 3 (mean of 3 independent experiments), 1 mM inhibitor, pre-incubation 37 °C 10 min, A570; for inhibitory activity on glutamine synthetase compared with MSO: screen at 1 mM inhibitor concentration (Fig. 4), comparison in words
Description: Assays were performed at 1 mM inhibitor concentration using a glutamine synthetase activity assay kit (Abcam).
Procedure f or the glutamine synthetase inhibition assay (Figure 4)
In this assay, glutamine synthetase catalyzesthe transformation from g lutamate and ATP t o g lutamine and ADP. ADP in the subsequent reaction, in presence of ADP converter, ADP d eveloper and ADP pr obe , forms a colorimetric product that is measured at absorbance 570 nm.
1. Stock solutions of glutamine synthetase, ATP, ADP converter, and ADP developer were prepared according to the protocol by Abcam: https://www.abcam.com/ps/products/284/ab284572/documents/Glutamine-Synthetase- Activity-Assay- […]
GS assay buffer, glutamate, and ADP probe were used as supplied.
2. Glutamine synthetase (2 µL ) was pre- incubated with methionine sulfoximine (MSO) (2 µL, 10 mM, 1 mM final concn) and methionine sulfoximine peptides 1b -8b (2 µL, 10 mM, 1 mM final concn) at 37 °C for 10 min, protected from light. For enzyme control, GS assay buffer (2 µL ) was used instead of MSO or peptides 1b -8b. For background control, GS assay buffer (4 µL) without enzyme was used.
3. Substrate mix was prepared by mixing GS assay buffer (96 µL ), glutamate (24 µL ), and ATP (24 µL ).
The resulting substrate mix (12 µL) was added to each sample.
4. ADP reactio n mix was prepared by mixing GS assay buffer (42 µL), ADP probe (6 µL), ADP converter (6 µL), and ADP developer (6 µL ). The resulting ADP reaction mix (4 µL ) was added to each sample. The total reaction volume for each sample is 20 µL.
5. After incubation of the reaction mixture at 37 °C for 60 mi n , the absorbance at 570 nm (A570) was measured on a Thermo Scientific NanoDrop 2000c spectrophotometer. For each sample, A570 was measure […]
6. The background control reading was subtracted from test sample readings and enzyme control readings.
7. Inhibition of glutamine synthetase was det er mi ned by comparing A570 (test sample) and A570 ( enzyme
Percentage inhibition = A570 (enzyme control)−A570 (test sample)A570 (enzyme control) × 100%
8. The assay was repeated for 3 times and the percentage inhibition values are me a n ± S D of 3 independent

Compound	Inhibition (%) of glutamine synthetase, Assay 1 [%]	Inhibition (%) of glutamine synthetase, Assay 2 [%]	Inhibition (%) of glutamine synthetase, Assay 3 [%]	Average inhibition (%) of glutamine synthetase [%]	inhibitory activity on glutamine synthetase compared with MSO
CS(=N)(=O)CC[C@H](N)C(=O)O (some centres unmarked) [MSO, methionine sulfoximine]	18.1	18.8	19.2	18.7	
Ac-FPQSGM-NH2 [5b]	9.5	13.0	12.1	11.5	
Ac-MGDFQ-NH2 [1b]	16.8	17.2	19.0	17.7	
Ac-MGKFQ-NH2 [2b]	29.2	28.6	33.0	30.3	higher than that observed for MSO
Ac-MGRFTINP-NH2 [6b]	28.6	26.2	24.1	26.3	higher than that observed for MSO
Ac-RPKPQQFFGLM-NH2 (substance P) [7b]	1.7	3.1	3.7	2.8	
Ac-SYSMEHFRWGKPV-NH2 (α-MSH) [8b]	35.3	33.6	36.1	35.0	higher than that observed for MSO
Ac-VGMSWP-NH2 [4b]	13.3	15.5	14.3	14.4	
Ac-YGMLNP-NH2 [3b]	0.9	1.0	0.8		
